Measurements as given in PubChem BioAssay AID274 (DTP/NCI, 2004).
Toxic doses and inconclusive results are not listed. Rule for the calls: active = survival T/C of 150% or more; inactive = T/C below 125% in these data.

Test system: BDF1 mice, Lewis lung carcinoma iv, survival T/C
Assay: NCI In Vivo Anticancer Drug Screen. Data for tumor model Lewis Lung Carcinoma (intravenous) in B6D2F1 (BDF1) mice
Details: endpoint: median survival time, schedule: Q01DX009 (ip), vehicle: saline, higher = longer survival
Protocol: The antitumor activity of compounds was measured in mice bearing transplantable tumors. Survival or tumor size were measured and the results are expressed as the measurement made in the treated group (T) divided by the measurement made in the vehicle treated control group (C). The tumor model used in this assay is Lewis Lung Carcinoma (intravenous) in B6D2F1 (BDF1) mice

Measured: T/C

OCCN1CCN(CC/C=C2/c3ccccc3Sc3ccc(Cl)cc32)CC1
inactive: dose: 0.78 mg/kg/injection 102 % of control | dose: 1.56 mg/kg/injection 111 % of control | dose: 3.12 mg/kg/injection 98 % of control | dose: 6.25 mg/kg/injection 101 % of control | dose: 12.5 mg/kg/injection 100 % of control
